Test results reported in publication PMC4008261, “Rewiring of regenerated axons by combining treadmill training with semaphorin3A inhibition” (Molecular Brain, 2014).
pIC50: −log10 of the molar value.

Key:
[1] = target: Sphingomyelinase, Neutral (N-SMase); assay: Pharmacological profile: enzyme inhibition; type: biochemical
Source text: (§1) Table 1 Pharmacological profile of SM-345431 (part 1) | column: IC50 (μm)

[2] = target: Matrix Metalloproteinase-3 (MMP-3) (Homo sapiens, UniProt P08254); assay: Pharmacological profile: enzyme inhibition; type: biochemical
Chain of Matrix Metalloproteinase-3 (MMP-3) (P08254 100-477, species assumed): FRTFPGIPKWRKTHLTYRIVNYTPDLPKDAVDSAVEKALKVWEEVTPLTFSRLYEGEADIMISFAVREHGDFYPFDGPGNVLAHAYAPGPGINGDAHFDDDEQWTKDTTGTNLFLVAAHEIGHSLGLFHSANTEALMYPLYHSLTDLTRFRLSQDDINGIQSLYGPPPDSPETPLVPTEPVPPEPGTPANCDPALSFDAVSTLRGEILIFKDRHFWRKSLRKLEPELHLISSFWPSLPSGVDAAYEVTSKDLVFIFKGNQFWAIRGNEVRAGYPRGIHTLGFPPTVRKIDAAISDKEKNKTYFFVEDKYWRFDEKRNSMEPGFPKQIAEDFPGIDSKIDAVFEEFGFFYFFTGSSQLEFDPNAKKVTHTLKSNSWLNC
Source text: as §1

Caspase 8 = Caspase 8 (Homo sapiens, UniProt Q14790); assay: Pharmacological profile: enzyme inhibition; type: biochemical
Source text: as §1

Caspase 3 = Caspase 3 (Homo sapiens, UniProt P42574); assay: Pharmacological profile: enzyme inhibition; type: biochemical
Source text: as §1

[3] = target: Protein Tyrosine Phosphatase, CD45 (Homo sapiens, UniProt P08575); assay: Pharmacological profile: enzyme inhibition; type: biochemical
Source text: as §1

[4] = target: Matrix Metalloproteinase-2 (MMP-2) (Homo sapiens, UniProt P08253); assay: Pharmacological profile: enzyme inhibition; type: biochemical
Source text: as §1

[5] = target: Protein Tyrosine Phosphatase, PTP1C (Homo sapiens, UniProt P29350); assay: Pharmacological profile: enzyme inhibition; type: biochemical
Source text: as §1

Caspase 1 = Caspase 1 (Homo sapiens, UniProt P29466); assay: Pharmacological profile: enzyme inhibition; type: biochemical
Source text: as §1

[6] = target: Matrix Metalloproteinase-1 (MMP-1) (Homo sapiens, UniProt P03956); assay: Pharmacological profile: enzyme inhibition; type: biochemical
Source text: as §1

Caspase 6 = Caspase 6 (Homo sapiens, UniProt P55212); assay: Pharmacological profile: enzyme inhibition; type: biochemical
Chain of Caspase 6 (P55212 24-179 limits assumed, species assumed): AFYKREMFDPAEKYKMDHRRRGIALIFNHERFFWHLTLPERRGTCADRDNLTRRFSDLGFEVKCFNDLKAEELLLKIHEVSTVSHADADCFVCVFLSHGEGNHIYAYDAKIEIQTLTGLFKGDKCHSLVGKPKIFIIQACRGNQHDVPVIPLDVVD
Chain of Caspase 6 (P55212 194-293 limits assumed, species assumed): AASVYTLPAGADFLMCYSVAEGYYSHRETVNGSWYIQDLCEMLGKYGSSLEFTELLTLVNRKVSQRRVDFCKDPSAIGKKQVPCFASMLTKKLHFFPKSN
Source text: as §1

[7] = target: Protein Tyrosine Phosphatase, T-Cell (Homo sapiens, UniProt P17706); assay: Pharmacological profile: enzyme inhibition; type: biochemical
Chain of Protein Tyrosine Phosphatase, T-Cell (P17706 whole entry): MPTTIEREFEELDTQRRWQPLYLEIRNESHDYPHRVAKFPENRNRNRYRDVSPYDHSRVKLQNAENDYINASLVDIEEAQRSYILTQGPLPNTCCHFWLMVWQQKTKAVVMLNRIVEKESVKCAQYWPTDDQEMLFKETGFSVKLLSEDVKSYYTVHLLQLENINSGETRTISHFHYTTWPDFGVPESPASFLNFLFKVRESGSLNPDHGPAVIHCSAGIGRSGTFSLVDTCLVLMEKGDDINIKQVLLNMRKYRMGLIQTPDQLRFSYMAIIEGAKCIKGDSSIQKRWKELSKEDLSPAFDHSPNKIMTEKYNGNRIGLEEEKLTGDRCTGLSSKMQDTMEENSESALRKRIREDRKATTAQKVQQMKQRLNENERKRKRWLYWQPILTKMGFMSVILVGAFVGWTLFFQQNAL
Source text: as §1

[8] = target: Matrix Metalloproteinase-7 (MMP-7) (Homo sapiens, UniProt P09237); assay: Pharmacological profile: enzyme inhibition; type: biochemical
Chain of Matrix Metalloproteinase-7 (MMP-7) (P09237 95-267, species assumed): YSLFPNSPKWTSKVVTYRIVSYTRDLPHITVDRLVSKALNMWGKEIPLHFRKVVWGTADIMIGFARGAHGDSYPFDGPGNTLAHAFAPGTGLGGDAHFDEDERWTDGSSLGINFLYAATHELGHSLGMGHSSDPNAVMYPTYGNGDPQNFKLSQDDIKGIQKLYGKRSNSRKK
Source text: as §1

[9] = target: Matrix Metalloproteinase-9 (MMP-9) (Homo sapiens, UniProt P14780); assay: Pharmacological profile: enzyme inhibition; type: biochemical
Chain of Matrix Metalloproteinase-9 (MMP-9) (P14780 94-707, species assumed): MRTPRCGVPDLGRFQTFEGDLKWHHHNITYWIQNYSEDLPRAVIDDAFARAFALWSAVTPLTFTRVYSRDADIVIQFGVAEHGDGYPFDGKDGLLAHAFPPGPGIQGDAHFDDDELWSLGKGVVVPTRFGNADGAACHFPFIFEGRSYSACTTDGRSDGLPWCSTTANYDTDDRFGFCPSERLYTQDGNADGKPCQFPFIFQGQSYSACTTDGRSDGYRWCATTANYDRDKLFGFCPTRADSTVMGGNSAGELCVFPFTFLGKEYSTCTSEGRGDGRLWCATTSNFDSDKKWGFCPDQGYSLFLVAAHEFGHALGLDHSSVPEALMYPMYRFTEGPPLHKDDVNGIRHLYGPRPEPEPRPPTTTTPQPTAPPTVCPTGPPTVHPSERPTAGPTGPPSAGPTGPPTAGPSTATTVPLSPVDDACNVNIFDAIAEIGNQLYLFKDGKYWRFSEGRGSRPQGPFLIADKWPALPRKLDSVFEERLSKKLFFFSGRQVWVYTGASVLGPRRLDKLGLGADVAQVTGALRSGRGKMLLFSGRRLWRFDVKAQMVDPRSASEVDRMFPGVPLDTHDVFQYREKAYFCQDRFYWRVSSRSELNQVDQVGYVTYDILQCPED
Source text: as §1

[10] = target: Protein Tyrosine Phosphatase, PTP1B (Homo sapiens, UniProt P18031); assay: Pharmacological profile: enzyme inhibition; type: biochemical
Chain of Protein Tyrosine Phosphatase, PTP1B (P18031 whole entry): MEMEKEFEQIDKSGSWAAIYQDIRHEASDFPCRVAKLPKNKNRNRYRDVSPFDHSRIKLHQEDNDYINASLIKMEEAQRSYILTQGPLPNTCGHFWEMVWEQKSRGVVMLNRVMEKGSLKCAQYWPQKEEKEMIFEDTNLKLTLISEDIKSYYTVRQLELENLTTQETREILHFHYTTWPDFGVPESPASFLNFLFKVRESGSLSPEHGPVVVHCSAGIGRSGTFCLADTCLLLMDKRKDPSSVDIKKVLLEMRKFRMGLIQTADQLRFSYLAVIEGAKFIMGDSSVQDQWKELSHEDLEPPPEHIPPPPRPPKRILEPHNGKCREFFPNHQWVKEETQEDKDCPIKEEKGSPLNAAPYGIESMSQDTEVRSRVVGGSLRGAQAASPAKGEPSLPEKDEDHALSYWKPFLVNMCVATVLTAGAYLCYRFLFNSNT
Source text: as §1

Caspase 7 = Caspase 7 (Homo sapiens, UniProt P55210); assay: Pharmacological profile: enzyme inhibition; type: biochemical
Chain of Caspase 7 (P55210 24-198 limits assumed, species assumed): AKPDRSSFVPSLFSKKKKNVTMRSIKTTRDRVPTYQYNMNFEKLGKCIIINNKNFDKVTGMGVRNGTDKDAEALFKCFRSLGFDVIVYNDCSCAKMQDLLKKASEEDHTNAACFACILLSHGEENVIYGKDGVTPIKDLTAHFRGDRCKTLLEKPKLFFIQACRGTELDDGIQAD
Chain of Caspase 7 (P55210 207-303 limits assumed, species assumed): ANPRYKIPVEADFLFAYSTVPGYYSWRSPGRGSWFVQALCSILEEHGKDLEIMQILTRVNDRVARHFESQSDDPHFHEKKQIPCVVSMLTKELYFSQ
Source text: as §1

semaphorin3A = target: T1, semaphorin3A (Homo sapiens, UniProt Q14563); assay: Growth cone collapse assay, E8 chick DRG; type: cell-based; design: expressed in transfected cells; host or cells: COS7; conditions: read-out: semaphorin3A inhibiting activity, IC50
T1 sequence (Q14563 21-771): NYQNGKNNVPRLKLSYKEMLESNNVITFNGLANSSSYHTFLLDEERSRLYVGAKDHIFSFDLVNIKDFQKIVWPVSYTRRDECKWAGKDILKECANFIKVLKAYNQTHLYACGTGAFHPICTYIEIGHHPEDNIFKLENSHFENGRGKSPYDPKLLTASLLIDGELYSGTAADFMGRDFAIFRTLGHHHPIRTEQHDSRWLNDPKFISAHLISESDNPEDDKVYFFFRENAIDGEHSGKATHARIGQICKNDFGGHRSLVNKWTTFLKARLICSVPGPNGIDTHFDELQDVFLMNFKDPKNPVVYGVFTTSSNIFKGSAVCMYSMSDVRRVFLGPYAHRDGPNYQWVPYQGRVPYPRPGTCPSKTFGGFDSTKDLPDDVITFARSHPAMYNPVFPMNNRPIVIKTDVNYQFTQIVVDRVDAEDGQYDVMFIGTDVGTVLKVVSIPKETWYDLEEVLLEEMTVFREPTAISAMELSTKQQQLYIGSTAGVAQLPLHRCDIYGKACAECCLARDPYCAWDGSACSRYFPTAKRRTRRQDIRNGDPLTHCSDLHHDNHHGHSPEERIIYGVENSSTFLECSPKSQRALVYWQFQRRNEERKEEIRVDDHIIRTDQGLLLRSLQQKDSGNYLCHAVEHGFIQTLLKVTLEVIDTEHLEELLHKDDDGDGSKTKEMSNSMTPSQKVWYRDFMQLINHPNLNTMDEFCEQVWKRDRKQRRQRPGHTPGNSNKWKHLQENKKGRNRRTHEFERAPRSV
Protocol: The growth cone collapse assay and collagen co-culture experiments were performed as previously described. To examine the effects of SM-345431-silicone, small pieces (2 × 1 × 0.3 mm; approximately 1 mg containing 1 μg of SM-345431) of the SM-345431-silicone or control-silicone were placed in a collagen gel adjacent to E8 chick DRGs and COS7 cell aggregates, as shown in Figure 1C.

[11] = target: Tumor Necrosis Factor (TNF), Non-selective; assay: Pharmacological profile: receptor binding assay
Source text: as §1

Chemokine CCR1 = Chemokine CCR1 (Homo sapiens, UniProt P32246); assay: Pharmacological profile: receptor binding assay
Chain of Chemokine CCR1 (P32246 whole entry): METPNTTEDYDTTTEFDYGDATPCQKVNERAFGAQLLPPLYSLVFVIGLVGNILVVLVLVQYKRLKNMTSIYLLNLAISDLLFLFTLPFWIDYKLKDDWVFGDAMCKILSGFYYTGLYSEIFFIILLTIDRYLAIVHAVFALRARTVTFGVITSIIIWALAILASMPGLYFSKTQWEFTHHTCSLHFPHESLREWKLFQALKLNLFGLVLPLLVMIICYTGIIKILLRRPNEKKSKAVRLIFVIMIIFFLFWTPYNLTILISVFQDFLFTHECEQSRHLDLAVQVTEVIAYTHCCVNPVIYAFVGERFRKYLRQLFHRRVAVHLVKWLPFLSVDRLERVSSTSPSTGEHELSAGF
Source text: as §1

Chemokine CCR2B = Chemokine CCR2B (Homo sapiens, UniProt P41597); assay: Pharmacological profile: receptor binding assay
Chain of Chemokine CCR2B (P41597 1-360 isoform P41597-2): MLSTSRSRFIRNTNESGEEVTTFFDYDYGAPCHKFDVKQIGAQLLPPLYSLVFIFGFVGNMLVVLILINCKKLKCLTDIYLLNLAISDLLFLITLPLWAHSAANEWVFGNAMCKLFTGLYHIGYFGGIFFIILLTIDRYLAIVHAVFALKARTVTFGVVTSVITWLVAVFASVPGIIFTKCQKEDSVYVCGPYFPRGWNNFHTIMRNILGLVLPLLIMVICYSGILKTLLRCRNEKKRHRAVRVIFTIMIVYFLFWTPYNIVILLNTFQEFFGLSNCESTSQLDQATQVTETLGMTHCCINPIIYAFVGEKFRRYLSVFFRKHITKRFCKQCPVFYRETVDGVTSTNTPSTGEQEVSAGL
Source text: as §1

Chemokine CCR5 = Chemokine CCR5 (Homo sapiens, UniProt P51681); assay: Pharmacological profile: receptor binding assay
Chain of Chemokine CCR5 (P51681 whole entry): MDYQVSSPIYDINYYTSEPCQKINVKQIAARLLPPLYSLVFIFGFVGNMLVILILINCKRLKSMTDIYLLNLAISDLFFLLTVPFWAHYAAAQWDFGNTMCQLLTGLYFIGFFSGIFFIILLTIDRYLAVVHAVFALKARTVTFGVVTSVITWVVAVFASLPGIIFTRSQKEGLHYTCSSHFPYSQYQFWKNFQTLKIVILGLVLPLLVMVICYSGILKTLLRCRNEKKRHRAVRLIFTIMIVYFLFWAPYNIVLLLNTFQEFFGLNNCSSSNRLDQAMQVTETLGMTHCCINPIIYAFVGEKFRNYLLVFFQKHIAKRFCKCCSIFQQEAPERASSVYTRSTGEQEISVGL
Source text: as §1

Chemokine CCR4 = Chemokine CCR4 (Homo sapiens, UniProt P51679); assay: Pharmacological profile: receptor binding assay
Chain of Chemokine CCR4 (P51679 whole entry): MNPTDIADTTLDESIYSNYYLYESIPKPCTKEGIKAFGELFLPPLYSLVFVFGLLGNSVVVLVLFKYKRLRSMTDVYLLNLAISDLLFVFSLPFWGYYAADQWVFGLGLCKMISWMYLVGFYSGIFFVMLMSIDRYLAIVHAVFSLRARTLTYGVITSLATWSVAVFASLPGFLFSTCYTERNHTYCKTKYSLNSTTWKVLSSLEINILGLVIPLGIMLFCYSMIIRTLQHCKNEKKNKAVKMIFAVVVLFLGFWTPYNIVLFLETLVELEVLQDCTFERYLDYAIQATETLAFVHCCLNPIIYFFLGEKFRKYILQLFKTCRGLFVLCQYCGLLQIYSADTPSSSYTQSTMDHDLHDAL
Source text: as §1

Glucocorticoid = Glucocorticoid (Homo sapiens, UniProt P04150); assay: Pharmacological profile: receptor binding assay
Chain of Glucocorticoid (P04150 whole entry): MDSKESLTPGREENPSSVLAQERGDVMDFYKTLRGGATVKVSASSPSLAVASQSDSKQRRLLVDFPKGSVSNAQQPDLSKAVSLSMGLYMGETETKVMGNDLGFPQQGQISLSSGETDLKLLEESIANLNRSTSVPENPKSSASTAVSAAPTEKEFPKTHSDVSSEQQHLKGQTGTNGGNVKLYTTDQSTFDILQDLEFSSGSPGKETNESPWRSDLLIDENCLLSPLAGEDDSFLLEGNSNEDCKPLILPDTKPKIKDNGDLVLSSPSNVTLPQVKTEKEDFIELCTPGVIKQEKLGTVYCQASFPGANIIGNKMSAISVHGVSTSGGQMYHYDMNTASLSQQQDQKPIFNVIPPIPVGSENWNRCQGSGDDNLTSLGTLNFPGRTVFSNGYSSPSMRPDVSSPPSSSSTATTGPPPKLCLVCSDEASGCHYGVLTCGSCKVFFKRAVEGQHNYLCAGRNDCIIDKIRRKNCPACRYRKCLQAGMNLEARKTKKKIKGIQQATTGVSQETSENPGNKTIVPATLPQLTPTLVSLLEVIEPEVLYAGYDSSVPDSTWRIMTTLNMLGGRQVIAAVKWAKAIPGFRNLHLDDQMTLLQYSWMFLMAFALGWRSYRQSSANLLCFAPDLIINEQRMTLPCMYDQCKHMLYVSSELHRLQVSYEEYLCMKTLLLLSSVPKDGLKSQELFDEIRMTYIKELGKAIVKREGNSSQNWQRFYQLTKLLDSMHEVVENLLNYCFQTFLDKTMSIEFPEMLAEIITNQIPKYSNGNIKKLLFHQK
Source text: as §1

Chemokine CXCR2 (IL-8B) = Chemokine CXCR2 (IL-8B) (Homo sapiens, UniProt P25025); assay: Pharmacological profile: receptor binding assay
Source text: as §1

Measured: pIC50

CC(=O)c1cc2c(=O)c3c(C(=O)O)c(O)c(O)cc3oc2c(C(C)=O)c1-c1coc2cc(O)c(O)c(C(=O)O)c2c1=O [SM-345431, Vinaxanthone]
6.70 to 7.00: semaphorin3A
5.00: [8]
< 5.00: all other assays above
